Assay results reported in patent US9738634B2, “Heterocyclic amide compound and herbicide” (SYNGENTA PARTICIPATIONS AG, priority 2013, dated 2017).

Experiments:
Type in all cases: in vivo
[1] = test system: chickweed; test: Test Example 4: weedkilling efficacy by foliar treatment; N: chickweed; details: treatment dosage 315 g/ha
Method in brief: (§1)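 Seeds are spot-sown into sterilized diluvial soil and covered with about 1.5 cm of soil. After 14 days' greenhouse growth at 25 to 30° C, plants are sprayed on stems and leaves with diluted emulsion at the stated g/ha rate, then scored at 3 weeks.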

[2] = test system: chickweed; test: Test Example 3: weedkilling efficacy through soil treatment; N: chickweed; details: treatment dosage 315 g/ha
Method in brief: (§2)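 Crop and weed responses were judged three weeks after a uniform surface spray of the water-diluted emulsion at the given g/ha rate. Seeds sat beneath about 1.5 cm of sterilized diluvial soil, and boxes stood in a greenhouse at 25 to 30° C.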

[3] = test system: wheat; test: Test Example 4: foliar treatment, effect on crop; e: wheat; details: treatment dosage 315 g/ha
Method in brief: as §1

[4] = test system: directly sown rice; test: Test Example 4: foliar treatment, effect on crop; b: directly sown rice; details: treatment dosage 315 g/ha
Method in brief: as §1

[5] = test system: wild oat; test: Test Example 4: weedkilling efficacy by foliar treatment; G: wild oat; details: treatment dosage 315 g/ha
Method in brief: as §1

[6] = test system: barnyard grass; test: Test Example 1: weedkilling efficacy, preemergent weed treatment in the submerged state; A: barnyard grass; details: treatment dosage 252 g/ha
Method in brief: (§3)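 Submerged pre-emergence treatment, water-surface application of compound emulsion at g/ha dosages; 4 cm flooded alluvial soil, weeds sown and 2.5-leaf rice transplanted same day. Rated after 3 weeks, greenhouse.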

[7] = test system: corn; test: Test Example 4: foliar treatment, effect on crop; c: corn; details: treatment dosage 315 g/ha
Method in brief: as §1

[8] = test system: oval-leafed pondweed; test: Test Example 2: weedkilling efficacy, growth period weed treatment in the submerged state; C: oval-leafed pondweed; details: treatment dosage 252 g/ha
Method in brief: (§4)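 Seedlings at 1-2 leaves in 4 cm-deep submerged alluvial soil received emulsion formulations on the water surface, dosed per hectare; effects were judged 3 weeks on.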

[9] = test system: fig-leafed goosefoot; test: Test Example 3: weedkilling efficacy through soil treatment; M: fig-leafed goosefoot; details: treatment dosage 315 g/ha
Method in brief: as §2

[10] = test system: bulrush; test: Test Example 2: weedkilling efficacy, growth period weed treatment in the submerged state; B: bulrush; details: treatment dosage 252 g/ha
Method in brief: as §4

[11] = test system: wheat; test: Test Example 3: soil treatment, effect on crop; e: wheat; details: treatment dosage 315 g/ha
Method in brief: as §2

[12] = test system: Italian ryegrass; test: Test Example 4: weedkilling efficacy by foliar treatment; I: Italian ryegrass; details: treatment dosage 315 g/ha
Method in brief: as §1

[13] = test system: catchweed; test: Test Example 3: weedkilling efficacy through soil treatment; O: catchweed; details: treatment dosage 315 g/ha
Method in brief: as §2

[14] = test system: black-grass; test: Test Example 4: weedkilling efficacy by foliar treatment; H: black-grass; details: treatment dosage 315 g/ha
Method in brief: as §1

[15] = test system: catchweed; test: Test Example 4: weedkilling efficacy by foliar treatment; O: catchweed; details: treatment dosage 315 g/ha
Method in brief: as §1

[16] = test system: transplanted rice; test: Test Example 1: preemergent weed treatment in the submerged state, effect on crop; a: transplanted rice; details: treatment dosage 252 g/ha
Method in brief: as §3

[17] = test system: beet; test: Test Example 4: foliar treatment, effect on crop; f: beet; details: treatment dosage 315 g/ha
Method in brief: as §1

[18] = test system: oval-leafed pondweed; test: Test Example 1: weedkilling efficacy, preemergent weed treatment in the submerged state; C: oval-leafed pondweed; details: treatment dosage 252 g/ha
Method in brief: as §3

[19] = test system: soybean; test: Test Example 3: soil treatment, effect on crop; d: soybean; details: treatment dosage 315 g/ha
Method in brief: as §2

[20] = test system: beet; test: Test Example 3: soil treatment, effect on crop; f: beet; details: treatment dosage 315 g/ha
Method in brief: as §2

[21] = test system: soybean; test: Test Example 4: foliar treatment, effect on crop; d: soybean; details: treatment dosage 315 g/ha
Method in brief: as §1

[22] = test system: crabgrass; test: Test Example 3: weedkilling efficacy through soil treatment; D: crabgrass; details: treatment dosage 315 g/ha
Method in brief: as §2

[23] = test system: redroot pigweed; test: Test Example 4: weedkilling efficacy by foliar treatment; L: redroot pigweed; details: treatment dosage 315 g/ha
Method in brief: as §1

[24] = test system: birds-eye speedwell; test: Test Example 3: weedkilling efficacy through soil treatment; p: birds-eye speedwell; details: treatment dosage 315 g/ha
Method in brief: as §2

[25] = test system: black-grass; test: Test Example 3: weedkilling efficacy through soil treatment; H: black-grass; details: treatment dosage 315 g/ha
Method in brief: as §2

[26] = test system: crabgrass; test: Test Example 4: weedkilling efficacy by foliar treatment; D: crabgrass; details: treatment dosage 315 g/ha
Method in brief: as §1

[27] = test system: green foxtail; test: Test Example 4: weedkilling efficacy by foliar treatment; E: green foxtail; details: treatment dosage 315 g/ha
Method in brief: as §1

[28] = test system: corn; test: Test Example 3: soil treatment, effect on crop; c: corn; details: treatment dosage 315 g/ha
Method in brief: as §2

[29] = test system: green foxtail; test: Test Example 3: weedkilling efficacy through soil treatment; E: green foxtail; details: treatment dosage 315 g/ha
Method in brief: as §2

[30] = test system: barnyard grass; test: Test Example 2: weedkilling efficacy, growth period weed treatment in the submerged state; A: barnyard grass; details: treatment dosage 252 g/ha
Method in brief: as §4

[31] = test system: redroot pigweed; test: Test Example 3: weedkilling efficacy through soil treatment; L: redroot pigweed; details: treatment dosage 315 g/ha
Method in brief: as §2

[32] = test system: Indian mallow; test: Test Example 3: weedkilling efficacy through soil treatment; K: Indian mallow; details: treatment dosage 315 g/ha
Method in brief: as §2

[33] = test system: Italian ryegrass; test: Test Example 3: weedkilling efficacy through soil treatment; I: Italian ryegrass; details: treatment dosage 315 g/ha
Method in brief: as §2

[34] = test system: fig-leafed goosefoot; test: Test Example 4: weedkilling efficacy by foliar treatment; M: fig-leafed goosefoot; details: treatment dosage 315 g/ha
Method in brief: as §1

[35] = test system: bulrush; test: Test Example 1: weedkilling efficacy, preemergent weed treatment in the submerged state; B: bulrush; details: treatment dosage 252 g/ha
Method in brief: as §3

[36] = test system: directly sown rice; test: Test Example 3: soil treatment, effect on crop; b: directly sown rice; details: treatment dosage 315 g/ha
Method in brief: as §2

[37] = test system: wild oat; test: Test Example 3: weedkilling efficacy through soil treatment; G: wild oat; details: treatment dosage 315 g/ha
Method in brief: as §2

[38] = test system: birds-eye speedwell; test: Test Example 4: weedkilling efficacy by foliar treatment; p: birds-eye speedwell; details: treatment dosage 315 g/ha
Method in brief: as §1

[39] = test system: Indian mallow; test: Test Example 4: weedkilling efficacy by foliar treatment; K: Indian mallow; details: treatment dosage 315 g/ha
Method in brief: as §1

| Compound | N (chickweed) weedkilling efficacy grade [1] | N (chickweed) weedkilling efficacy grade [2] | e (wheat) effect on crop grade [3] | b (directly sown rice) effect on crop grade [4] | G (wild oat) weedkilling efficacy grade [5] | c (corn) effect on crop grade [7] | M (fig-leafed goosefoot) weedkilling efficacy grade [9] | e (wheat) effect on crop grade [11] | I (Italian ryegrass) weedkilling efficacy grade [12] | O (catchweed) weedkilling efficacy grade [13] | H (black-grass) weedkilling efficacy grade [14] | O (catchweed) weedkilling efficacy grade [15] | f (beet) effect on crop grade [17] | d (soybean) effect on crop grade [19] | f (beet) effect on crop grade [20] | d (soybean) effect on crop grade [21] | D (crabgrass) weedkilling efficacy grade [22] | L (redroot pigweed) weedkilling efficacy grade [23] | P (birds-eye speedwell) weedkilling efficacy grade [24] | H (black-grass) weedkilling efficacy grade [25] | other results |
| --- | --- | --- | --- | --- | --- | --- | --- | --- | --- | --- | --- | --- | --- | --- | --- | --- | --- | --- | --- | --- | --- |
| CC1=C(c2ccccc2)C(=O)N(C(C)(C)C(=O)Nc2nnc(C(F)(F)F)s2)CO1 [B-1-10] | 2 (weed kill ratio 20% or more, less than 40%) | 2 (weed kill ratio 20% or more, less than 40%) | 0 (weed kill ratio 5% or less (practically no effect)) | 5 (weed kill ratio 90% or more, (practically complete withering)) | 2 (weed kill ratio 20% or more, less than 40%) | 4 (weed kill ratio 70% or more, less than 90%) | 3 (weed kill ratio 40% or more, less than 70%) | 0 (weed kill ratio 5% or less (practically no effect)) | 0 (weed kill ratio 5% or less (practically no effect)) | 0 (weed kill ratio 5% or less (practically no effect)) | 4 (weed kill ratio 70% or more, less than 90%) | 2 (weed kill ratio 20% or more, less than 40%) | 2 (weed kill ratio 20% or more, less than 40%) | 0 (weed kill ratio 5% or less (practically no effect)) | 3 (weed kill ratio 40% or more, less than 70%) | 2 (weed kill ratio 20% or more, less than 40%) | 5 (weed kill ratio 90% or more, (practically complete withering)) | 2 (weed kill ratio 20% or more, less than 40%) | 4 (weed kill ratio 70% or more, less than 90%) | 5 (weed kill ratio 90% or more, (practically complete withering)) | A (barnyard grass) weedkilling efficacy grade [6]: 5 (weed kill ratio 90% or more, (practically complete withering)); C (oval-leafed pondweed) weedkilling efficacy grade [8]: 5 (weed kill ratio 90% or more, (practically complete withering)); B (bulrush) weedkilling efficacy grade [10]: 5 (weed kill ratio 90% or more, (practically complete withering)); a (transplanted rice) effect on crop grade [16]: 3 (weed kill ratio 40% or more, less than 70%); C (oval-leafed pondweed) weedkilling efficacy grade [18]: 5 (weed kill ratio 90% or more, (practically complete withering)); D (crabgrass) weedkilling efficacy grade [26]: 5 (weed kill ratio 90% or more, (practically complete withering)); E (green foxtail) weedkilling efficacy grade [27]: 5 (weed kill ratio 90% or more, (practically complete withering)); c (corn) effect on crop grade [28]: 3 (weed kill ratio 40% or more, less than 70%); E (green foxtail) weedkilling efficacy grade [29]: 5 (weed kill ratio 90% or more, (practically complete withering)); A (barnyard grass) weedkilling efficacy grade [30]: 4 (weed kill ratio 70% or more, less than 90%); L (redroot pigweed) weedkilling efficacy grade [31]: 3 (weed kill ratio 40% or more, less than 70%); K (Indian mallow) weedkilling efficacy grade [32]: 3 (weed kill ratio 40% or more, less than 70%); I (Italian ryegrass) weedkilling efficacy grade [33]: 3 (weed kill ratio 40% or more, less than 70%); M (fig-leafed goosefoot) weedkilling efficacy grade [34]: 3 (weed kill ratio 40% or more, less than 70%); B (bulrush) weedkilling efficacy grade [35]: 5 (weed kill ratio 90% or more, (practically complete withering)); b (directly sown rice) effect on crop grade [36]: 5 (weed kill ratio 90% or more, (practically complete withering)); G (wild oat) weedkilling efficacy grade [37]: 4 (weed kill ratio 70% or more, less than 90%); P (birds-eye speedwell) weedkilling efficacy grade [38]: 4 (weed kill ratio 70% or more, less than 90%); K (Indian mallow) weedkilling efficacy grade [39]: 4 (weed kill ratio 70% or more, less than 90%) |
| CC1=C(c2cccnc2F)C(=O)N(C(C)(C)C(=O)Nc2cc(C(F)(F)F)ccn2)CO1 [B-2-17, 2-[5-(2-fluoropyridin-3-yl)-6-methyl-4-oxo-2H-1,3-oxazin-3(4H)-yl]-2-methyl-N-[4-(trifluoromethyl)pyridin-2-yl] propionamide] | 2 (weed kill ratio 20% or more, less than 40%) | 3 (weed kill ratio 40% or more, less than 70%) | 0 (weed kill ratio 5% or less (practically no effect)) | 5 (weed kill ratio 90% or more, (practically complete withering)) | 4 (weed kill ratio 70% or more, less than 90%) | 3 (weed kill ratio 40% or more, less than 70%) | 3 (weed kill ratio 40% or more, less than 70%) | 1 (weed kill ratio 5% or more, less than 20%) | 5 (weed kill ratio 90% or more, (practically complete withering)) | 1 (weed kill ratio 5% or more, less than 20%) | 4 (weed kill ratio 70% or more, less than 90%) | 0 (weed kill ratio 5% or less (practically no effect)) | 2 (weed kill ratio 20% or more, less than 40%) | 2 (weed kill ratio 20% or more, less than 40%) | 0 (weed kill ratio 5% or less (practically no effect)) | 0 (weed kill ratio 5% or less (practically no effect)) | 5 (weed kill ratio 90% or more, (practically complete withering)) | 3 (weed kill ratio 40% or more, less than 70%) | 5 (weed kill ratio 90% or more, (practically complete withering)) | 5 (weed kill ratio 90% or more, (practically complete withering)) | D (crabgrass) weedkilling efficacy grade [26]: 5 (weed kill ratio 90% or more, (practically complete withering)); E (green foxtail) weedkilling efficacy grade [27]: 5 (weed kill ratio 90% or more, (practically complete withering)); c (corn) effect on crop grade [28]: 2 (weed kill ratio 20% or more, less than 40%); E (green foxtail) weedkilling efficacy grade [29]: 5 (weed kill ratio 90% or more, (practically complete withering)); L (redroot pigweed) weedkilling efficacy grade [31]: 2 (weed kill ratio 20% or more, less than 40%); K (Indian mallow) weedkilling efficacy grade [32]: 2 (weed kill ratio 20% or more, less than 40%); I (Italian ryegrass) weedkilling efficacy grade [33]: 5 (weed kill ratio 90% or more, (practically complete withering)); M (fig-leafed goosefoot) weedkilling efficacy grade [34]: 2 (weed kill ratio 20% or more, less than 40%); b (directly sown rice) effect on crop grade [36]: 4 (weed kill ratio 70% or more, less than 90%); G (wild oat) weedkilling efficacy grade [37]: 5 (weed kill ratio 90% or more, (practically complete withering)); P (birds-eye speedwell) weedkilling efficacy grade [38]: 2 (weed kill ratio 20% or more, less than 40%); K (Indian mallow) weedkilling efficacy grade [39]: 1 (weed kill ratio 5% or more, less than 20%) |
